PubChem BioAssay (NCI)
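In this assay, cells in 96-well plates receive the compound at five concentrations for 48 hours. Endpoints are linearly interpolated between the surrounding concentrations. Definition used: TGI = concentration required for complete inhibition of growth.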

Columns and labels:
Test in all cases: DTP human tumour cell line panel, 48 h
CAKI-1 renal = tested on: CAKI-1 renal
ACHN renal = tested on: ACHN renal
SF-295 CNS = tested on: SF-295 CNS
SK-MEL-5 melanoma = tested on: SK-MEL-5 melanoma
NCI-H460 lung = tested on: NCI-H460 lung
A498 renal = tested on: A498 renal
OVCAR-3 ovarian = tested on: OVCAR-3 ovarian
NCI-H226 lung = tested on: NCI-H226 lung
CCRF-CEM leukemia = tested on: CCRF-CEM leukemia
UACC-62 melanoma = tested on: UACC-62 melanoma
DMS 114 small cell lung = tested on: DMS 114 small cell lung
EKVX NSCLC = tested on: EKVX NSCLC
SK-OV-3 ovarian = tested on: SK-OV-3 ovarian
HCT-116 colon = tested on: HCT-116 colon
DLD-1 colon = tested on: DLD-1 colon
SNB-75 CNS = tested on: SNB-75 CNS
DMS 273 small cell lung = tested on: DMS 273 small cell lung
SK-MEL-28 melanoma = tested on: SK-MEL-28 melanoma
NCI-H23 lung = tested on: NCI-H23 lung
LXFL 529 NSCLC = tested on: LXFL 529 NSCLC
XF 498 CNS = tested on: XF 498 CNS
SR leukemia = tested on: SR leukemia
UO-31 renal = tested on: UO-31 renal
M19-MEL melanoma = tested on: M19-MEL melanoma
KM20L2 colon = tested on: KM20L2 colon
KM12 colon = tested on: KM12 colon
SW-620 colon = tested on: SW-620 colon
SK-MEL-2 melanoma = tested on: SK-MEL-2 melanoma
UACC-257 melanoma = tested on: UACC-257 melanoma
U251 CNS = tested on: U251 CNS
HL-60(TB) leukemia = tested on: HL-60(TB) leukemia
K-562 leukemia = tested on: K-562 leukemia
OVCAR-5 ovarian = tested on: OVCAR-5 ovarian
MOLT-4 leukemia = tested on: MOLT-4 leukemia
SNB-19 CNS = tested on: SNB-19 CNS
SNB-78 CNS = tested on: SNB-78 CNS
RXF 393 renal = tested on: RXF 393 renal
TK-10 renal = tested on: TK-10 renal
HCC-2998 colon = tested on: HCC-2998 colon
MALME-3M melanoma = tested on: MALME-3M melanoma
RPMI-8226 leukemia = tested on: RPMI-8226 leukemia
SN12C renal = tested on: SN12C renal
HOP-62 NSCLC = tested on: HOP-62 NSCLC
IGROV1 ovarian = tested on: IGROV1 ovarian
COLO 205 colon = tested on: COLO 205 colon
SF-268 CNS = tested on: SF-268 CNS
OVCAR-8 ovarian = tested on: OVCAR-8 ovarian
HT29 colon = tested on: HT29 colon
786-0 renal = tested on: 786-0 renal
NCI-H522 lung = tested on: NCI-H522 lung
HOP-92 NSCLC = tested on: HOP-92 NSCLC
LOX IMVI melanoma = tested on: LOX IMVI melanoma
HCT-15 colon = tested on: HCT-15 colon
HOP-18 NSCLC = tested on: HOP-18 NSCLC
M14 melanoma = tested on: M14 melanoma
OVCAR-4 ovarian = tested on: OVCAR-4 ovarian
SF-539 CNS = tested on: SF-539 CNS
A549 NSCLC = tested on: A549 NSCLC

Clc1ccc2c(Cl)nc(-c3ccccc3)nc2c1
TGI (CAKI-1 renal): 97.3 µM | TGI (ACHN renal): > 100 µM | TGI (SF-295 CNS): 90.3 µM | TGI (SK-MEL-5 melanoma): 82.4 µM | TGI (NCI-H460 lung): > 100 µM | TGI (A498 renal): > 100 µM | TGI (OVCAR-3 ovarian): 50.1 µM | TGI (NCI-H226 lung): 55.9 µM | TGI (CCRF-CEM leukemia): > 100 µM | TGI (UACC-62 melanoma): > 100 µM | TGI (DMS 114 small cell lung): 74 µM | TGI (EKVX NSCLC): 91.1 µM | TGI (SK-OV-3 ovarian): 62.3 µM | TGI (HCT-116 colon): > 100 µM | TGI (DLD-1 colon): > 100 µM | TGI (SNB-75 CNS): > 100 µM | TGI (DMS 273 small cell lung): > 100 µM | TGI (SK-MEL-28 melanoma): > 100 µM | TGI (NCI-H23 lung): 35.9 µM | TGI (LXFL 529 NSCLC): > 100 µM | TGI (XF 498 CNS): 35.6 µM | TGI (SR leukemia): > 100 µM | TGI (UO-31 renal): > 100 µM | TGI (M19-MEL melanoma): > 100 µM | TGI (KM20L2 colon): 68 µM | TGI (KM12 colon): > 100 µM | TGI (SW-620 colon): > 100 µM | TGI (SK-MEL-2 melanoma): 95 µM | TGI (UACC-257 melanoma): > 100 µM | TGI (U251 CNS): 35.1 µM | TGI (HL-60(TB) leukemia): 45.8 µM | TGI (K-562 leukemia): > 100 µM | TGI (OVCAR-5 ovarian): > 100 µM | TGI (MOLT-4 leukemia): 84.5 µM | TGI (SNB-19 CNS): > 100 µM | TGI (SNB-78 CNS): 91 µM | TGI (RXF 393 renal): 71.2 µM | TGI (TK-10 renal): > 100 µM | TGI (HCC-2998 colon): > 100 µM | TGI (MALME-3M melanoma): > 100 µM | TGI (RPMI-8226 leukemia): 55.3 µM | TGI (SN12C renal): > 100 µM | TGI (HOP-62 NSCLC): > 100 µM | TGI (IGROV1 ovarian): > 100 µM | TGI (COLO 205 colon): > 100 µM | TGI (SF-268 CNS): > 100 µM | TGI (OVCAR-8 ovarian): > 100 µM | TGI (HT29 colon): > 100 µM

CNC(=O)OCc1cc2ccncc2c2c1[nH]c1ccccc12
TGI (CAKI-1 renal): > 100 µM | TGI (ACHN renal): > 100 µM | TGI (SF-295 CNS): > 100 µM | TGI (SK-MEL-5 melanoma): > 100 µM | TGI (NCI-H460 lung): > 100 µM | TGI (786-0 renal): > 100 µM | TGI (NCI-H522 lung): > 100 µM | TGI (OVCAR-3 ovarian): > 100 µM | TGI (NCI-H226 lung): > 100 µM | TGI (CCRF-CEM leukemia): > 100 µM | TGI (UACC-62 melanoma): > 100 µM | TGI (DMS 114 small cell lung): > 100 µM | TGI (HOP-92 NSCLC): > 100 µM | TGI (EKVX NSCLC): > 100 µM | TGI (HCT-116 colon): > 100 µM | TGI (DLD-1 colon): > 100 µM | TGI (SNB-75 CNS): > 80.3 µM | TGI (DMS 273 small cell lung): > 100 µM | TGI (LOX IMVI melanoma): > 100 µM | TGI (HCT-15 colon): > 100 µM | TGI (SK-MEL-28 melanoma): > 100 µM | TGI (HOP-18 NSCLC): > 100 µM | TGI (NCI-H23 lung): > 100 µM | TGI (LXFL 529 NSCLC): > 100 µM | TGI (XF 498 CNS): 97.9 µM | TGI (SR leukemia): > 33.2 µM | TGI (UO-31 renal): > 100 µM | TGI (M19-MEL melanoma): > 100 µM | TGI (KM20L2 colon): > 100 µM | TGI (KM12 colon): > 100 µM | TGI (SW-620 colon): > 100 µM | TGI (SK-MEL-2 melanoma): > 100 µM | TGI (UACC-257 melanoma): > 100 µM | TGI (U251 CNS): > 100 µM | TGI (HL-60(TB) leukemia): > 100 µM | TGI (K-562 leukemia): > 100 µM | TGI (OVCAR-5 ovarian): > 100 µM | TGI (MOLT-4 leukemia): > 85.3 µM | TGI (M14 melanoma): > 100 µM | TGI (SNB-19 CNS): > 100 µM | TGI (SNB-78 CNS): > 100 µM | TGI (RXF 393 renal): 8.39 µM | TGI (OVCAR-4 ovarian): > 100 µM | TGI (TK-10 renal): > 100 µM | TGI (HCC-2998 colon): > 100 µM | TGI (MALME-3M melanoma): > 100 µM | TGI (RPMI-8226 leukemia): > 100 µM | TGI (SN12C renal): > 100 µM | TGI (HOP-62 NSCLC): 55 µM | TGI (IGROV1 ovarian): > 100 µM | TGI (COLO 205 colon): > 100 µM | TGI (SF-539 CNS): > 100 µM | TGI (SF-268 CNS): > 41.8 µM | TGI (OVCAR-8 ovarian): > 100 µM | TGI (HT29 colon): > 100 µM | TGI (A549 NSCLC): > 100 µM
